{"source": "PubChem BioAssay AID1259407", "about": "(Chemical Carcinogenesis Research Information System (CCRIS), 2018)", "tested_on": "CCRIS mutagenicity, Ames/micronucleus/aberration tests", "assay": "CCRIS mutagenicity studies", "key": {"[1]": {"details": "Test System: AMES SALMONELLA TYPHIMURIUM, Strain/Indicator: TA98, Metabolic Activation: NONE, Method: PREINCUBATION"}, "[2]": {"details": "Test System: AMES SALMONELLA TYPHIMURIUM, Strain/Indicator: TA100, Metabolic Activation: NONE, Method: PREINCUBATION"}, "[3]": {"details": "Test System: AMES SALMONELLA TYPHIMURIUM, Strain/Indicator: TA104, Metabolic Activation: NONE, Method: PREINCUBATION"}, "[4]": {"details": "Test System: AMES SALMONELLA TYPHIMURIUM, Strain/Indicator: TA98, Metabolic Activation: NONE, Method: STANDARD PLATE"}}, "note": "Calls of active or inactive are those of the source. No rule for the calls is given here.", "data": [{"smiles": "C/C=C(\\C)CCl", "values": [{"measurement": "mutagenic call", "setting": "Test System: AMES SALMONELLA TYPHIMURIUM, Strain/Indicator: TA100, Metabolic Activation: NONE, Method: LIQUID SUSPENSION", "value": "active; positive"}, {"measurement": "mutagenic call", "setting": "Test System: AMES SALMONELLA TYPHIMURIUM, Strain/Indicator: TA100, Metabolic Activation: RAT, LIVER, S-9, Method: LIQUID SUSPENSION", "value": "active; positive"}]}, {"smiles": "O=C(S)c1ccccc1", "values": [{"measurement": "mutagenic call", "setting": "[1]", "value": "inactive; negative"}, {"measurement": "mutagenic call", "setting": "Test System: AMES SALMONELLA TYPHIMURIUM, Strain/Indicator: TA98, Metabolic Activation: RAT LIVER S-9, PHENOBARBITAL AND BETA-NAPHTHOFLAVONE, Method: PREINCUBATION", "value": "inactive; negative"}, {"measurement": "mutagenic call", "setting": "[2]", "value": "inactive; negative"}, {"measurement": "mutagenic call", "setting": "Test System: AMES SALMONELLA TYPHIMURIUM, Strain/Indicator: TA100, Metabolic Activation: RAT LIVER S-9, PHENOBARBITAL AND BETA-NAPHTHOFLAVONE, Method: PREINCUBATION", "value": "inactive; negative"}, {"measurement": "mutagenic call", "setting": "Test System: AMES SALMONELLA TYPHIMURIUM, Strain/Indicator: TA102, Metabolic Activation: NONE, Method: PREINCUBATION", "value": "inactive; negative"}, {"measurement": "mutagenic call", "setting": "Test System: AMES SALMONELLA TYPHIMURIUM, Strain/Indicator: TA102, Metabolic Activation: RAT LIVER S-9, PHENOBARBITAL AND BETA-NAPHTHOFLAVONE, Method: PREINCUBATION", "value": "inactive; negative"}, {"measurement": "mutagenic call", "setting": "[3]", "value": "inactive; negative"}, {"measurement": "mutagenic call", "setting": "Test System: AMES SALMONELLA TYPHIMURIUM, Strain/Indicator: TA104, Metabolic Activation: RAT LIVER S-9, PHENOBARBITAL AND BETA-NAPHTHOFLAVONE, Method: PREINCUBATION", "value": "inactive; negative"}, {"measurement": "mutagenic call", "setting": "Test System: AMES SALMONELLA TYPHIMURIUM, Strain/Indicator: TA1535, Metabolic Activation: NONE, Method: PREINCUBATION", "value": "inactive; negative"}, {"measurement": "mutagenic call", "setting": "Test System: AMES SALMONELLA TYPHIMURIUM, Strain/Indicator: TA1535, Metabolic Activation: RAT LIVER S-9, PHENOBARBITAL AND BETA-NAPHTHOFLAVONE, Method: PREINCUBATION", "value": "inactive; negative"}, {"measurement": "mutagenic call", "setting": "Test System: AMES SALMONELLA TYPHIMURIUM, Strain/Indicator: TA1537, Metabolic Activation: NONE, Method: PREINCUBATION", "value": "inactive; negative"}, {"measurement": "mutagenic call", "setting": "Test System: AMES SALMONELLA TYPHIMURIUM, Strain/Indicator: TA1537, Metabolic Activation: RAT LIVER S-9, PHENOBARBITAL AND BETA-NAPHTHOFLAVONE, Method: PREINCUBATION", "value": "inactive; negative"}, {"measurement": "mutagenic call", "setting": "Test System: E.COLI, Strain/Indicator: WP2UVRA/PKM101, Metabolic Activation: NONE, Method: PREINCUBATION", "value": "inactive; negative"}, {"measurement": "mutagenic call", "setting": "Test System: E.COLI, Strain/Indicator: WP2UVRA/PKM101, Metabolic Activation: RAT LIVER S-9, PHENOBARBITAL AND BETA-NAPHTHOFLAVONE, Method: PREINCUBATION", "value": "inactive; negative"}, {"measurement": "mutagenic call", "setting": "Test System: E.COLI, Strain/Indicator: WP2UVRA, Metabolic Activation: NONE, Method: PREINCUBATION", "value": "inactive; negative"}, {"measurement": "mutagenic call", "setting": "Test System: E.COLI, Strain/Indicator: WP2UVRA, Metabolic Activation: RAT LIVER S-9, PHENOBARBITAL AND BETA-NAPHTHOFLAVONE, Method: PREINCUBATION", "value": "inactive; negative"}]}, {"smiles": "Cn1c(NO)nc2c3cccnc3ccc21", "values": [{"measurement": "mutagenic call", "setting": "Test System: AMES SALMONELLA TYPHIMURIUM, Strain/Indicator: TA98(NR), Metabolic Activation: NADPH, Method: STANDARD PLATE", "value": "active; positive"}, {"measurement": "mutagenic call", "setting": "Test System: AMES SALMONELLA TYPHIMURIUM, Strain/Indicator: TA98(NR), Metabolic Activation: NONE, Method: STANDARD PLATE", "value": "active; positive"}, {"measurement": "mutagenic call", "setting": "Test System: AMES SALMONELLA TYPHIMURIUM, Strain/Indicator: TA98(NR), Metabolic Activation: RAT, LIVER, MICROSOMES, NADPH, Method: STANDARD PLATE", "value": "active; positive"}, {"measurement": "mutagenic call", "setting": "Test System: AMES SALMONELLA TYPHIMURIUM, Strain/Indicator: TA98(NR), Metabolic Activation: RAT, LIVER, MICROSOMES, Method: STANDARD PLATE", "value": "active; positive"}, {"measurement": "mutagenic call", "setting": "Test System: AMES SALMONELLA TYPHIMURIUM, Strain/Indicator: TA98(NR), Method: STANDARD PLATE", "value": "active; positive"}, {"measurement": "mutagenic call", "setting": "[4]", "value": "active; positive"}]}, {"smiles": "CCOP(=S)(OCC)Oc1cnc2ccccc2n1", "values": [{"measurement": "mutagenic call", "setting": "[4]", "value": "inactive; negative"}, {"measurement": "mutagenic call", "setting": "Test System: AMES SALMONELLA TYPHIMURIUM, Strain/Indicator: TA98, Metabolic Activation: S-9, NADPH GENERATING SYSTEM, Method: STANDARD PLATE", "value": "inactive; negative"}, {"measurement": "mutagenic call", "setting": "Test System: AMES SALMONELLA TYPHIMURIUM, Strain/Indicator: TA102, Metabolic Activation: NONE, Method: STANDARD PLATE", "value": "inactive; negative"}, {"measurement": "mutagenic call", "setting": "Test System: AMES SALMONELLA TYPHIMURIUM, Strain/Indicator: TA102, Metabolic Activation: S-9, NADPH GENERATING SYSTEM, Method: STANDARD PLATE", "value": "inactive; negative"}, {"measurement": "mutagenic call", "setting": "Test System: AMES SALMONELLA TYPHIMURIUM, Strain/Indicator: TA1535, Metabolic Activation: NONE, Method: STANDARD PLATE", "value": "inactive; negative"}, {"measurement": "mutagenic call", "setting": "Test System: AMES SALMONELLA TYPHIMURIUM, Strain/Indicator: TA1535, Metabolic Activation: S-9, NADPH GENERATING SYSTEM, Method: STANDARD PLATE", "value": "inactive; negative"}, {"measurement": "mutagenic call", "setting": "Test System: AMES SALMONELLA TYPHIMURIUM, Strain/Indicator: TA1537, Metabolic Activation: NONE, Method: STANDARD PLATE", "value": "inactive; negative"}, {"measurement": "mutagenic call", "setting": "Test System: AMES SALMONELLA TYPHIMURIUM, Strain/Indicator: TA1537, Metabolic Activation: S-9, NADPH GENERATING SYSTEM, Method: STANDARD PLATE", "value": "inactive; negative"}]}, {"smiles": "O[C@H]1C=Cc2ncccc2[C@@H]1O", "values": [{"measurement": "mutagenic call", "setting": "Test System: AMES SALMONELLA TYPHIMURIUM, Strain/Indicator: TA100, Metabolic Activation: NONE, Method: STANDARD PLATE", "value": "inactive; negative"}, {"measurement": "mutagenic call", "setting": "Test System: AMES SALMONELLA TYPHIMURIUM, Strain/Indicator: TA100, Metabolic Activation: RAT, LIVER, S-9, AROCLOR 1254 (10 OR 20%), Method: STANDARD PLATE", "value": "inactive; negative"}]}, {"smiles": "OC[C@H](Cc1cccc(O)c1)[C@H](CO)Cc1cccc(O)c1", "values": [{"measurement": "mutagenic call", "setting": "Test System: CHINESE HAMSTER V79 CELLS, Strain/Indicator: V79 CELLS (HPRT)/6-THIOGUANINE, Metabolic Activation: NONE, Method: SUSPENSION/PLATE", "value": "inactive; negative"}, {"measurement": "mutagenic call", "setting": "Test System: CHINESE HAMSTER V-79, Strain/Indicator: V-79 (HPRT)/6-THIOGUANINE, Metabolic Activation: NONE", "value": "inactive; negative"}]}, {"smiles": "ONc1ccccc1", "values": [{"measurement": "mutagenic call", "setting": "Test System: AMES SALMONELLA TYPHIMURIUM, Strain/Indicator: TA100, Metabolic Activation: RAT, LIVER, S-9, PCB, Method: PREINCUBATION", "value": "active; positive"}, {"measurement": "mutagenic call", "setting": "Test System: E. COLI, Strain/Indicator: WP2 UVRA, Metabolic Activation: NONE, Method: FLUCTUATION TEST", "value": "inactive; negative"}]}, {"smiles": "CCn1cc(C(=O)O)c(=O)c2cnc(N3CCNCC3)nc21", "values": [{"measurement": "mutagenic call", "setting": "End Point: In vitro micronucleus, Test System: WTK-1 human lymphoma cells, Metabolic Activation: None", "value": "inactive; negative"}, {"measurement": "mutagenic call", "setting": "[1]", "value": "inactive; negative"}, {"measurement": "mutagenic call", "setting": "Test System: AMES SALMONELLA TYPHIMURIUM, Strain/Indicator: TA98, Metabolic Activation: RAT LIVER S-9, AROCLOR 1254, Method: PREINCUBATION", "value": "inactive; negative"}, {"measurement": "mutagenic call", "setting": "[2]", "value": "inactive; negative"}, {"measurement": "mutagenic call", "setting": "Test System: AMES SALMONELLA TYPHIMURIUM, Strain/Indicator: TA100, Metabolic Activation: RAT LIVER S-9, AROCLOR 1254, Method: PREINCUBATION", "value": "inactive; negative"}, {"measurement": "mutagenic call", "setting": "Test System: AMES SALMONELLA TYPHIMURIUM, Strain/Indicator: TA102, Metabolic Activation: RAT LIVER S-9, AROCLOR 1254, Method: PREINCUBATION", "value": "active; positive"}, {"measurement": "mutagenic call", "setting": "[3]", "value": "inactive; negative"}, {"measurement": "mutagenic call", "setting": "Test System: AMES SALMONELLA TYPHIMURIUM, Strain/Indicator: TA104, Metabolic Activation: RAT LIVER S-9, AROCLOR 1254, Method: PREINCUBATION", "value": "inactive; negative"}, {"measurement": "mutagenic call", "setting": "Test System: AMES SALMONELLA TYPHIMURIUM, Strain/Indicator: UHT8414, Metabolic Activation: NONE, Method: PREINCUBATION", "value": "inactive; negative"}, {"measurement": "mutagenic call", "setting": "Test System: AMES SALMONELLA TYPHIMURIUM, Strain/Indicator: UHT8414, Metabolic Activation: RAT LIVER S-9, AROCLOR 1254, Method: PREINCUBATION", "value": "inactive; negative"}]}, {"smiles": "CC(=O)N1CCc2cc([N+](=O)[O-])ccc21", "values": [{"measurement": "mutagenic call", "setting": "End Point: IN VITRO CHROMOSOMAL ABERRATIONS, Test System: CHL CELLS, Metabolic Activation: RAT, LIVER, S-9, SODIUM PHENOBARBITAL AND 5,6-BENZOFLAVONE", "value": "inactive; negative"}]}]}
